Assay results published in US20090220507A1, “INHIBITION OF EXTRACELLULAR SIGNAL-REGULATED KINASE 1/2 AS A TREATMENT FOR CARDIAC HYPERTROPHY AND HEART FAILURE” (priority 2005, published 2009).
Entries after “also recorded” stand apart in the source; their conditions may differ. * marks the point of attachment. Myristoyl = CCCCCCCCCCCCCC(=O)*

Assays:
[1] = tested on: ERK1/2; assay: Western blot of phosphorylated ERK1/2 in isoproterenol-stimulated NRVMs; assay type: cell-based, rat; conditions: for isoproterenol activation of ERK1/2 (phosphorylation): all time points (5, 30, 60 minutes, 6, 24, 33, 48 hours)
Experimental: (§1) Materials. Isoproterenol (Sigma) was dissolved in sterile H2O containing 1 mmol/L Ascorbic Acid, and the concentrations used are described in the results section.
(§2) Cell Culture. Neonatal rat cardiac ventricular myocytes (NRVMs) were cultured as previously described (Simpson et al., 1982; Simpson and Savion, 1982; Long et al., 1992; Waspe et al., 1990). Briefly, cells were isolated by trypsin digestion from the ventricles of 1-3 day old rats. Isolation procedures were done in a very gentle manner and cells were plated at a concentration of 1.5×10^5 cells per well in 12-well tissue culture plates in medium containing serum. 24 hours later the media was changed to serum free media containing insulin, transferin, bovine serum albumin, vitamin B12 and penicillin. Wells were pre-coated with a 0.1% gelatin solution and dried in a hood under UV lights. In addition, all media solutions were supplemented with Hepes (pH 7.5) to a final concentration of 20 mmol/L in order to buffer the pH of the media.
ERK1/2 Western Blots. Phosphorylated ERK1/2 protein extraction was performed essentially as described in Headley et al. (2004).
ERK1/2 activation is dependent on calcineurin and on CaMKII.

[2] = tested on: β1-AR-mediated fetal gene expression in NRVMs; assay: RNase protection assay of isoproterenol-induced fetal gene program mRNA in NRVMs; assay type: cell-based, rat
Experimental: as §1, §2
(§3) RNase Protection Assay. Total RNA was extracted by TRIZol (Invitrogen) and used in RNase protection assays (RPA). RPAs were performed essentially as described (Patten et al., 1996; Kinugawa et al., 2001). Briefly, 5 μg of total RNA was hybridized against probes specific to skeletal α-actin, SRCA2A, α-MyHC, β-MyHC, ANF, BNP and GAPDH. RNase protection experiments were performed using the RPAII kit (Ambion). RPA experiments were performed from mRNA extracted from a minimum of three different experiments.
as §3, with “RNase Protection Assay: Total RNA” for “RNase Protection Assay. Total RNA”, “al., 1996; Kinuguwa et al.,” for “al., 1996; Kinugawa et al.,”, “protection experiments (RPAs) were performed” for “protection experiments were performed”

[3] = inhibitor 1 hour before isoproterenol, RPA, mRNA normalized to GAPDH
[4] = inhibitor alone, without isoproterenol
[5] = inhibitor 1 hour after ISO treatment, mRNA extracted 48 hours later, RPA

14-22 Amide myristoylated (Myristoyl-GRTGRRNAI-NH2; SMILES CCCCCCCCCCCCCC(=O)NCC(=O)N[C@@H](CCCNC(=N)N)C(=O)N[C@H](C(=O)NCC(=O)N[C@@H](CCCNC(=N)N)C(=O)N[C@@H](CCCNC(=N)N)C(=O)N[C@@H](CC(N)=O)C(=O)N[C@@H](C)C(=O)N[C@H](C(N)=O)[C@@H](C)CC)[C@@H](C)O; UniProt P61925 15-23, looked up, fragment) [PKI14-22]
isoproterenol activation of ERK1/2 (phosphorylation) ([1]; inhibitor pre-treatment): did not prevent

NCCOB(c1ccccc1)c1ccccc1 [AFB-30, 2-APB]
isoproterenol-induced changes in endogenous mRNA fetal gene program induction (all changes in fetal gene expression) [2, 3]: completely abrogated

COc1ccc(S(=O)(=O)N(CCO)c2ccccc2CN(C)C/C=C/c2ccc(Cl)cc2)cc1 [KN-93]
activation of ERK1/2 in response to isoproterenol (phosphorylation) ([1]; inhibitor pre-treatment, 33 and 48 hour isoproterenol time points): blocked
isoproterenol-associated down-regulation (repression) of SRCA2a [2, 3]: not capable of preventing
isoproterenol-associated down-regulation (repression) of α-MyHC [2, 3]: prevented
isoproterenol-associated up-regulation (induction) of ANP [2, 3]: prevented
isoproterenol-associated up-regulation of BNP [2, 3]: prevented
isoproterenol-associated up-regulation of skeletal α-actin [2, 3]: prevented
isoproterenol-induced changes in endogenous mRNA fetal gene program induction (all changes in fetal gene expression) [2, 3]: prevented
ANP mRNA levels [2, 4]: decrease
SRCA2a mRNA levels [2, 4]: decrease
β-MyHC mRNA levels [2, 4]: decrease

N#CC(=C(/N)Sc1ccccc1N)/C(C#N)=C(\N)Sc1ccccc1N [U0126]
isoproterenol activation of ERK1/2 (phosphorylation) ([1]; inhibitor pre-treatment): completely abrogates
ISO-mediated down-regulation of αMyHC [2, 5]: prevents
ISO-mediated up-regulation of the fetal isoforms (fetal gene expression) [2, 5]: prevents
isoproterenol-associated down-regulation (repression) of SRCA2a [2, 3]: does not prevent
isoproterenol-associated down-regulation (repression) of α-MyHC [2, 3]: blocks; also recorded: prevents
isoproterenol-associated up-regulation (induction) of ANP [2, 3]: blocks
isoproterenol-associated up-regulation of BNP [2, 3]: blocks
isoproterenol-associated up-regulation of skeletal α-actin [2, 3]: blocks
up-regulation (activation) of β-MyHC in response to isoproterenol stimulation [2, 3]: prevents
ISO-mediated up-regulation of the fetal isoforms ([2]; inhibitor 1 hour prior to ISO treatment, mRNA extracted 48 hours later, RPA): prevents

CC(C)NCC(O)c1ccc(O)c(O)c1 (centres unmarked) [isoproterenol]
ERK phosphorylation as a surrogate marker for activation ([1]; isoproterenol stimulation, 5 minutes, 33 hours and 48 hours): increased
